Reference: US20060089824A1, “Methods and systems for drug screening and computational modeling” (priority 2002, published 2006)

Target: D1 receptor (Homo sapiens, UniProt P21728)
Assay: Calculated fraction of D1 receptors occupied from Ki and free drug concentration
Conditions: at a therapeutic olanzapine level
From the text: In particular, affinities of many drugs for receptors are well known. For example, Goodman and Gilmans “The Pharmacological Basis of Therapeutics,” Tenth Edition. […] [formula]

Chain of D1 receptor (P21728 whole entry): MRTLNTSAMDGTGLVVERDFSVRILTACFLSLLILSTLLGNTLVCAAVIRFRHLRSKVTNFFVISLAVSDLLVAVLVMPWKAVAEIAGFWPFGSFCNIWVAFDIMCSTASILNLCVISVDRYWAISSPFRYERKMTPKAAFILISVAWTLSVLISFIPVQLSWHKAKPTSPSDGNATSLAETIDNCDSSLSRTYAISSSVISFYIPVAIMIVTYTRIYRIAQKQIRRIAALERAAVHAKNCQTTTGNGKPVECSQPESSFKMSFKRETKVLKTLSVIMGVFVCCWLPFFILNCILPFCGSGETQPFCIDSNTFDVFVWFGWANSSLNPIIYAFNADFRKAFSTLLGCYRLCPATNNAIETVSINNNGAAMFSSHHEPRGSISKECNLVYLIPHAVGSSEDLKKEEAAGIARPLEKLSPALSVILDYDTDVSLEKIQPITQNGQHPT

Cc1cc2c(s1)Nc1ccccc1N=C2N1CCN(C)CC1 [olanzapine]
D1 receptors blocked (antagonized): approximately 47%
